From publication PMC4807533, “Specific tracking of xylan using fluorescent-tagged carbohydrate-binding module 15 as molecular probe” (Biotechnology for Biofuels, 2016)
Where two headings read alike, the source gives them in different places.

Target: T1, OC15 (mOrange2-CBM15 fusion probe) (Cellvibrio japonicus, UniProt Q59675)
T1 construct: gene xyn10C; CBM15 domain of xylanase Xyn10C, C-terminal; N-terminal His6-mOrange2 reporter, tags kept; single Gly linker; synthetic gene, pET11a, E. coli BL21-Gold(DE3)pLysS; primers imply CBM15 begins VAAS and ends at stop after EAYSAN
Assay: isothermal titration calorimetry
Assay type: binding
Settings: 20 mM Tris-HCl pH 7.5, 20 mM NaCl, 5 mM CaCl2, 25 °C
Source text: isothermal titration calorimetry on OC15 (mOrange2-CBM15 fusion probe)

T1 sequence (Q59675 86-247): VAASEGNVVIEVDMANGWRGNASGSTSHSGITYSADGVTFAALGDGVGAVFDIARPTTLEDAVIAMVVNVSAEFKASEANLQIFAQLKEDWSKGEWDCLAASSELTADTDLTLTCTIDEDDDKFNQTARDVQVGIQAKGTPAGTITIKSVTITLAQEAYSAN

Structure (SMILES) | Kd (cellohexaose of 90 % purity, read-out: K a × 10^3 (M^-1) (converted)) [µM] | Kd (cellohexaose of 90 % purity, read-out: K d) [µM] | Kd (read-out: K a × 10^3 (M^-1) (converted)) [µM] | Kd (read-out: K d) [µM]
OC[C@H]1O[C@@H](O[C@H]2[C@H](O)[C@@H](O)[C@H](O[C@H]3[C@H](O)[C@@H](O)[C@H](O[C@H]4[C@H](O)[C@@H](O)[C@H](O[C@H]5[C@H](O)[C@@H](O)[C@H](O[C@H]6[C@H](O)[C@@H](O)C(O)O[C@@H]6CO)O[C@@H]5CO)O[C@@H]4CO)O[C@@H]3CO)O[C@@H]2CO)[C@H](O)[C@@H](O)[C@@H]1O (stereo partly shown) [cellohexaose] | 476 | 479 | – | –
OC1OC[C@@H](O[C@@H]2OC[C@@H](O[C@@H]3OC[C@@H](O[C@@H]4OC[C@@H](O[C@@H]5OC[C@@H](O[C@@H]6OC[C@@H](O)[C@H](O)[C@H]6O)[C@H](O)[C@H]5O)[C@H](O)[C@H]4O)[C@H](O)[C@H]3O)[C@H](O)[C@H]2O)[C@H](O)[C@H]1O (stereo partly shown) [xylohexaose] | – | – | 29.4 | 29.4
